Laboratory results from patent publication US20180042882A1, “C16:1n7-PALMITOLEATE AND DERIVATIVES THEREOF FOR TREATING OBESITY, PROMOTING WEIGHT LOSS, AND SUPPORTING WEIGHT MANAGEMENT” (Tersus Life Sciences, LLC, priority 2015, published 2018).

Experiments:
[1] = system: CTP-1; experiment: Enzymes involved in β-oxidation after exogenous palmitoleic acid; type: cell-based, bovine; settings: addition of exogenous palmitoleic acid
Description: As such, C16:1n7-palmitoleate, derivatives thereof, pharmaceutically acceptable salts thereof, or a combination thereof, are useful in methods for reducing adipocyte hypertrophy and excess adipose tissue deposition.

[2] = system: bovine adipocytes; experiment: Fatty acid composition of bovine adipocyte cultures with exogenous palmitoleic acid (GLC); type: cell-based; settings: P<0.05
Description: (§1) Bovine adipocyte cultures were used to determine if addition of exogenous palmitoleic acid (C16:1n7) altered lipogenesis in vitro (Burns et al., 2012a). Adipocytes were harvested from the bovine cultures on day 6 and day 12 and analyzed using GLC and qPCR. […] In contrast, increasing concentrations of palmitoleic acid led to a decrease in palmitic acid (C16:0), stearic acid (C18:0), and oleic acid (C18:1) levels (P<0.05). FIG. 2 illustrates de novo lipogenesis and β-oxidation in an adipocyte after exogenous palmitoleic acid addition.
(§2) The desaturation ratio of C18:1 cis-9/C18:0 decreased (P<0.05) in response to increasing concentrations of palmitoleic acid, which was consistent with the observed decrease in SCD-1 mRNA expression.

[3] = system: Acyl-CoA dehydrogenase, long chain (ACADL); experiment: Expression of fatty acid oxidation genes in bovine adipocytes; type: cell-based; settings: normalized to EIF3K and UXT; P≦0.07
Description: (§3) The effect of palmitoleic acid supplementation on fatty acid oxidation in bovine adipocytes (see Kadegowda et al., 2011a) was examined by measuring the expression levels of Acyl-Coenzyme A oxidase 2 (ACOX2), Acyl-CoA dehydrogenase, long chain (ACADL), Phytanoyl-CoA 2-hydroxylase (PHYH), Caveolini (CAV1) and Adipose differentiation-related protein (ADEP). The geometric mean of Eukaryotic translation initiation factor 3, subunit k (EIF3K) and Ubiquitously expressed transcript (UXT) was used for normalization.

[4] = system: Phytanoyl-CoA 2-hydroxylase (PHYH); experiment: as above; type: cell-based; settings: normalized to EIF3K and UXT
Description: as §3

[5] = system: SCD-1; experiment: qPCR mRNA expression in bovine adipocyte cultures; type: cell-based; settings: compared to untreated control cells; P<0.05
Description: as §1, §2

[6] = system: FASN; experiment: qPCR mRNA expression in bovine adipocyte cultures; type: cell-based; settings: compared to untreated control cells; P<0.05
Description: as §1, §2

[7] = system: ELOVL6; experiment: qPCR mRNA expression in bovine adipocyte cultures; type: cell-based; settings: compared to untreated control cells; P<0.05
Description: as §1, §2

[8] = system: bovine adipocytes; experiment: Rate of lipogenesis with [1-13C]acetate in bovine adipocytes; type: cell-based; settings: 2.5 mM [1-13C]acetate on day 6; compared to controls
Description: as §2

[9] = system: bovine adipocytes; experiment: Fatty acid levels and desaturation (13C18:0, GLC-MS) in fatty acid supplemented bovine adipocytes; type: cell-based; settings: P<0.05
Procedure: In addition, cells were incubated with ^13C2 and ^13C18:0 on day 6 to estimate lipogenic and desaturation rates using GLC-MS.

[10] = Infusion of 13C16:1n7 in lambs, uptake and utilization; type: in vivo; settings: 5 mg/kg level, intravenous infusion
Procedure: This level of palmitoleic acid supplementation was selected based on previous experiments where lambs were infused with varying levels (0, 2, or 5 mg/kg) of ^13C16:1n7 to assess uptake and utilization in adipose tissues. […] This 5 mg/kg level is based on intravenous infusion levels and thus is adjusted for estimated ruminal bypass and intestinal absorption rates for dietary monounsaturated fatty acids for this oral feeding study.

[11] = increasing concentrations of palmitoleic acid (50, 150 and 300 μM), day 6 and day 12
[12] = increasing concentrations of palmitoleic acid

## CCCCCC/C=C\CCCCCCCC(=O)O [palmitoleic acid]
[1]
  CTP-1 (enzyme involved in β-oxidation) regulation: upregulates
[2]; in response to increasing concentrations of palmitoleic acid
  desaturation ratio of C18:1 cis-9/C18:0: decreased
[2]; [11]
  cis-11 vaccenic acid (C18:1c11) levels in adipocytes: linear increase
  cis-13 eicosenoic acid (C20:1c13) levels in adipocytes: linear increase
  total fatty acid levels in adipocytes: linear increase
[2]; increasing concentrations of palmitoleic acid (50, 150 and 300 μM), harvested day 6 and day 12
  Palmitoleic acid levels in adipocytes: linear increase
[2]; [12]
  oleic acid (C18:1) levels in adipocytes: decrease
  palmitic acid (C16:0) levels in adipocytes: decrease
  stearic acid (C18:0) levels in adipocytes: decrease
[3]
  increase in ACADL expression: 2.36 fold
[4]
  increase in PHYH expression: 95.5 fold
[5]
  SCD-1 mRNA expression levels: reduction
[6]
  FASN mRNA expression levels: reduction
[7]
  ELOVL6 mRNA expression levels: reduction
[8]
  rate of lipogenesis: lower rate of lipogenesis
[9]; after 12 h of 13C18:0 incubation, compared with all other treatments
  13C18:1 cis-9 levels: lower
[9]; compared with all other treatments
  C18:1 cis-9/C18:0 ratio: lower
[9]; compared with control cells
  C16: levels in supplemented cells: elevated
  C18:1 cis-11 levels in supplemented cells: elevated
  C20:1 cis-13 levels in supplemented cells: elevated
[10]; compared to control
  blood glucose levels: altered
[10]; lambs infused with 0, 2, or 5 mg/kg
  concentrations of 13C16:1n7 in serum: greatest concentrations
